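How tested: cells in 96-well plates exposed to compound for 48 hours at five concentrations. GI50 is the concentration that inhibits growth by half. TGI denotes the concentration required for complete inhibition of growth.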
Legend:
Assay in all cases: NCI anticancer screen, dose series, 48 h
CCRF-CEM leukemia = test system: CCRF-CEM leukemia
EKVX NSCLC = test system: EKVX NSCLC
RXF 393 renal = test system: RXF 393 renal
M14 melanoma = test system: M14 melanoma
HCT-116 colon = test system: HCT-116 colon
UACC-62 melanoma = test system: UACC-62 melanoma
SF-539 CNS = test system: SF-539 CNS
MDA-MB-231 breast = test system: MDA-MB-231 breast
OVCAR-3 ovarian = test system: OVCAR-3 ovarian
UACC-257 melanoma = test system: UACC-257 melanoma
A498 renal = test system: A498 renal
KM12 colon = test system: KM12 colon
NCI/ADR-RES ovarian = test system: NCI/ADR-RES ovarian
ACHN renal = test system: ACHN renal
HL-60(TB) leukemia = test system: HL-60(TB) leukemia
HCT-15 colon = test system: HCT-15 colon
K-562 leukemia = test system: K-562 leukemia
SNB-19 CNS = test system: SNB-19 CNS
SK-MEL-2 melanoma = test system: SK-MEL-2 melanoma
DU-145 prostate = test system: DU-145 prostate
PC-3 prostate = test system: PC-3 prostate
SK-MEL-28 melanoma = test system: SK-MEL-28 melanoma
IGROV1 ovarian = test system: IGROV1 ovarian
HOP-92 NSCLC = test system: HOP-92 NSCLC
SF-268 CNS = test system: SF-268 CNS
SN12C renal = test system: SN12C renal
MOLT-4 leukemia = test system: MOLT-4 leukemia
OVCAR-8 ovarian = test system: OVCAR-8 ovarian
COLO 205 colon = test system: COLO 205 colon
MCF7 breast = test system: MCF7 breast
MDA-MB-435 = test system: MDA-MB-435
NCI-H23 lung = test system: NCI-H23 lung
HS 578T breast = test system: HS 578T breast
SR leukemia = test system: SR leukemia
OVCAR-4 ovarian = test system: OVCAR-4 ovarian
HT29 colon = test system: HT29 colon
BT-549 breast = test system: BT-549 breast
NCI-H460 lung = test system: NCI-H460 lung
SK-OV-3 ovarian = test system: SK-OV-3 ovarian
U251 CNS = test system: U251 CNS
HCC-2998 colon = test system: HCC-2998 colon
SK-MEL-5 melanoma = test system: SK-MEL-5 melanoma
LOX IMVI melanoma = test system: LOX IMVI melanoma
HOP-62 NSCLC = test system: HOP-62 NSCLC
CAKI-1 renal = test system: CAKI-1 renal
UO-31 renal = test system: UO-31 renal
T-47D breast = test system: T-47D breast
RPMI-8226 leukemia = test system: RPMI-8226 leukemia
NCI-H522 lung = test system: NCI-H522 lung
SNB-75 CNS = test system: SNB-75 CNS
TK-10 renal = test system: TK-10 renal
MALME-3M melanoma = test system: MALME-3M melanoma
NCI-H226 lung = test system: NCI-H226 lung
786-0 renal = test system: 786-0 renal
SW-620 colon = test system: SW-620 colon
OVCAR-5 ovarian = test system: OVCAR-5 ovarian
SF-295 CNS = test system: SF-295 CNS
A549 NSCLC = test system: A549 NSCLC

## CC(C)=NNc1ncnc2c1ncn2C1OC(CO)C(O)C1O (centres undefined)
CCRF-CEM leukemia
  GI50: 0.581 µM
  TGI: > 100 µM
EKVX NSCLC
  GI50: 2.95 µM
  TGI: > 73.4 µM
RXF 393 renal
  GI50: 0.3 µM
  TGI: 3.54 µM
M14 melanoma
  GI50: 0.752 µM
  TGI: > 100 µM
HCT-116 colon
  GI50: 0.144 µM
  TGI: 2.07 µM
UACC-62 melanoma
  GI50: 1.21 µM
  TGI: 9.3 µM
SF-539 CNS
  GI50: 2.06 µM
  TGI: 11.3 µM
MDA-MB-231 breast
  GI50: 0.285 µM
  TGI: 13.6 µM
OVCAR-3 ovarian
  GI50: 0.385 µM
  TGI: 1.97 µM
UACC-257 melanoma
  GI50: 5.75 µM
  TGI: > 100 µM
A498 renal
  GI50: 1.43 µM
  TGI: > 100 µM
KM12 colon
  GI50: 0.378 µM
  TGI: 2.65 µM
NCI/ADR-RES ovarian
  GI50: 0.442 µM
  TGI: > 21.6 µM
ACHN renal
  GI50: 0.278 µM
  TGI: 3.24 µM
HL-60(TB) leukemia
  GI50: 0.402 µM
  TGI: 5.61 µM
HCT-15 colon
  GI50: 0.217 µM
K-562 leukemia
  GI50: 0.417 µM
  TGI: > 100 µM
SNB-19 CNS
  GI50: 1.43 µM
  TGI: > 100 µM
SK-MEL-2 melanoma
  GI50: 1.81 µM
  TGI: 29.2 µM
DU-145 prostate
  GI50: 0.324 µM
  TGI: 2.4 µM
PC-3 prostate
  GI50: 0.733 µM
  TGI: 29.1 µM
SK-MEL-28 melanoma
  GI50: 4.5 µM
  TGI: > 100 µM
IGROV1 ovarian
  GI50: 0.287 µM
HOP-92 NSCLC
  GI50: 0.503 µM
  TGI: 5.27 µM
SF-268 CNS
  GI50: 1.41 µM
  TGI: > 100 µM
SN12C renal
  GI50: 0.476 µM
  TGI: 15.3 µM
MOLT-4 leukemia
  GI50: 4.86 µM
  TGI: > 100 µM
OVCAR-8 ovarian
  GI50: 0.332 µM
  TGI: > 100 µM
COLO 205 colon
  GI50: 0.414 µM
  TGI: 6.31 µM
MCF7 breast
  GI50: 0.327 µM
  TGI: > 51.5 µM
MDA-MB-435
  GI50: 0.528 µM
  TGI: 11.7 µM
NCI-H23 lung
  GI50: 1.48 µM
  TGI: 19.4 µM
HS 578T breast
  GI50: 5.8 µM
  TGI: > 26.3 µM
SR leukemia
  GI50: 0.414 µM
  TGI: > 22 µM
OVCAR-4 ovarian
  GI50: 0.509 µM
  TGI: > 32.1 µM
HT29 colon
  GI50: 0.268 µM
  TGI: > 100 µM
BT-549 breast
  GI50: 1.61 µM
  TGI: 15.4 µM
NCI-H460 lung
  GI50: 0.304 µM
SK-OV-3 ovarian
  GI50: 0.324 µM
  TGI: 4.22 µM
U251 CNS
  GI50: 0.648 µM
  TGI: > 100 µM
HCC-2998 colon
  GI50: 1.94 µM
  TGI: > 53 µM
SK-MEL-5 melanoma
  GI50: 0.99 µM
  TGI: 4.2 µM
LOX IMVI melanoma
  GI50: 0.228 µM
  TGI: 3.25 µM
HOP-62 NSCLC
  GI50: 0.398 µM
  TGI: 4.21 µM
CAKI-1 renal
  GI50: 0.303 µM
  TGI: 17.1 µM
UO-31 renal
  GI50: 0.354 µM
  TGI: 7.68 µM
T-47D breast
  GI50: 0.542 µM
  TGI: 9.6 µM
RPMI-8226 leukemia
  GI50: 0.537 µM
  TGI: 4.04 µM
NCI-H522 lung
  GI50: 0.283 µM
  TGI: 3.24 µM
SNB-75 CNS
  GI50: 1.34 µM
  TGI: > 78.1 µM
TK-10 renal
  GI50: 0.529 µM
  TGI: > 100 µM
MALME-3M melanoma
  GI50: 11.8 µM
  TGI: > 100 µM
NCI-H226 lung
  GI50: 0.448 µM
  TGI: > 100 µM
786-0 renal
  GI50: 0.72 µM
  TGI: 30.4 µM
SW-620 colon
  GI50: 0.381 µM
  TGI: > 100 µM
OVCAR-5 ovarian
  GI50: 1.16 µM
  TGI: > 31.1 µM
SF-295 CNS
  GI50: 0.529 µM
  TGI: > 33.2 µM

## CCOC(=O)c1c(-c2ccccc2)oc(=O)c(Cc2cccc3cccnc23)c1-c1ccccc1
CCRF-CEM leukemia
  TGI: > 10 µM
EKVX NSCLC
  TGI: > 10 µM
RXF 393 renal
  TGI: > 10 µM
M14 melanoma
  TGI: > 10 µM
HCT-116 colon
  TGI: > 10 µM
UACC-62 melanoma
  TGI: > 10 µM
A549 NSCLC
  TGI: > 10 µM
SF-539 CNS
  TGI: > 10 µM
MDA-MB-231 breast
  TGI: > 10 µM
OVCAR-3 ovarian
  TGI: > 10 µM
UACC-257 melanoma
  TGI: > 10 µM
A498 renal
  TGI: > 10 µM
KM12 colon
  TGI: > 10 µM
NCI/ADR-RES ovarian
  TGI: > 10 µM
ACHN renal
  TGI: > 10 µM
HL-60(TB) leukemia
  TGI: > 10 µM
HCT-15 colon
  TGI: > 10 µM
K-562 leukemia
  TGI: > 10 µM
SNB-19 CNS
  TGI: > 10 µM
SK-MEL-2 melanoma
  TGI: > 10 µM
DU-145 prostate
  TGI: > 10 µM
PC-3 prostate
  TGI: > 10 µM
SK-MEL-28 melanoma
  TGI: > 10 µM
IGROV1 ovarian
  TGI: > 10 µM
HOP-92 NSCLC
  TGI: > 10 µM
SF-268 CNS
  TGI: > 10 µM
SN12C renal
  TGI: > 10 µM
MOLT-4 leukemia
  TGI: > 10 µM
OVCAR-8 ovarian
  TGI: > 10 µM
COLO 205 colon
  TGI: > 10 µM
MCF7 breast
  TGI: > 10 µM
MDA-MB-435
  TGI: > 10 µM
NCI-H23 lung
  TGI: > 10 µM
HS 578T breast
  TGI: > 10 µM
SR leukemia
  TGI: > 10 µM
OVCAR-4 ovarian
  TGI: > 10 µM
HT29 colon
  TGI: > 10 µM
BT-549 breast
  TGI: > 10 µM
NCI-H460 lung
  TGI: > 10 µM
SK-OV-3 ovarian
  TGI: > 10 µM
U251 CNS
  TGI: > 10 µM
HCC-2998 colon
  TGI: > 10 µM
SK-MEL-5 melanoma
  TGI: > 10 µM
LOX IMVI melanoma
  TGI: > 10 µM
HOP-62 NSCLC
  TGI: > 10 µM
CAKI-1 renal
  TGI: > 10 µM
UO-31 renal
  TGI: > 10 µM
T-47D breast
  TGI: > 10 µM
RPMI-8226 leukemia
  TGI: > 10 µM
NCI-H522 lung
  TGI: > 10 µM
SNB-75 CNS
  TGI: > 10 µM
TK-10 renal
  TGI: > 10 µM
MALME-3M melanoma
  TGI: > 10 µM
NCI-H226 lung
  TGI: > 10 µM
786-0 renal
  TGI: > 10 µM
SW-620 colon
  TGI: > 10 µM
OVCAR-5 ovarian
  TGI: > 10 µM
SF-295 CNS
  TGI: > 10 µM

— PubChem BioAssay (NCI)
